Measured values reported in US4259450A, “Antibiotic acanthomycin and process for preparing” (The Upjohn Company, priority 1977, dated 1981).

What was measured:
Solubilities = type: physicochemical
S. pyogenese = assay: in vivo protection of S. pyogenes infected mice; conditions: administered subcutaneously
S. lutea = assay: standard tube assay for antibacterial activity, nutrient broth; type: cell-based, Sarcina lutea
Method: (§1) Acanthomycin was tested for antibacterial activity in a standard tube assay using nutrient broth as the medium. The minimum inhibitory concentration in mcg/ml against S. aureus was 50, and against S. lutea it was 25. Additional testing on a standard disc (12.7 mm) plate assay gave the following results: […]

S. aureus [1] = assay: as above; type: cell-based, Staphylococcus aureus
Method: as §1

S. aureus [2] = assay: in vivo protection of S. aureus infected mice
Method: Acanthomycin was also tested in vivo in standard laboratory mice. […] Against S. aureus infected mice the CD50 was 1.0 mg/kg.

Sarcina lutea = assay: standard disc (12.7 mm) plate assay; type: cell-based
Method: (§2) Acanthomycin was tested for antibacterial activity in a standard tube assay using nutrient broth as the medium. The minimum inhibitory concentration in mcg/ml against S. aureus was 50, and against S. lutea it was 25. Additional testing on a standard disc (12.7 mm) plate assay gave the following results:
(§3) The fermentation can be monitored by a disc-plate assay using B. subtilis as the test organism and deionized H2 O as diluent. A unit volume (0.08 ml) of solution containing the substance to be assayed is placed on a 12.7 mm paper disc which is then placed on an agar plate seeded with the assay organism. The agar plate is then incubated for 16 to 18 hours at 32° to 37° C. A biounit (BU) is defined as the concentration of the antibiotic which gives a 20 mm zone of inhibition under the standard assay conditions. Thus, if for example a fermentation beer has to be diluted 1/100 to give a 20 mm zone of inhibition, the potency of such beer is 100 BU/ml.

Bacillus cereus = assay: standard disc (12.7 mm) plate assay; type: cell-based
Method: as §2, §3

Staphylococcus aureus = assay: standard disc (12.7 mm) plate assay; type: cell-based
Method: as §2, §3

Bacillus subtilis = assay: standard disc (12.7 mm) plate assay; type: cell-based
Method: as §2, §3

Streptococcus pyogenes = assay: standard disc (12.7 mm) plate assay; type: cell-based
Method: as §2, §3

[3] = free acid, slightly soluble, ca.

acanthomycin
solubility in dimethylformamide (Solubilities; free acid): soluble | solubility in dimethylsulfoxide (Solubilities; free acid): soluble | solubility in ether (Solubilities; free acid): relatively insoluble | solubility in halogenated hydrocarbon solvents (Solubilities; free acid): relatively insoluble | solubility in saturated hydrocarbon solvents (Solubilities; free acid): relatively insoluble | solubility in water (Solubilities; free acid): relatively insoluble | solubility in ethanol (Solubilities; [3]): 1000 to 2000 µg/mL | solubility in methanol (Solubilities; [3]): 1000 to 2000 µg/mL | CD50 (S. pyogenese): 0.23 (0.17-0.31) mg/kg | minimum inhibitory concentration (S. lutea): 25 µg/mL | minimum inhibitory concentration (S. aureus [1]): 50 µg/mL | CD50 (S. aureus [2]): 1.0 mg/kg | Zone (Sarcina lutea; 0.31 mg/ml): 25 mm | Zone (Sarcina lutea; 0.62 mg/ml): 27 mm | Zone (Sarcina lutea; 1.25 mg/ml): 30 mm | Zone (Sarcina lutea; 2.5 mg/ml): 32 mm | Zone (Sarcina lutea; 5 mg/ml): 34 mm | Zone (Sarcina lutea; 10 mg/ml): 35 mm | Zone (Bacillus cereus; 0.31 mg/ml): 17 mm | Zone (Bacillus cereus; 0.62 mg/ml): 20 mm | Zone (Bacillus cereus; 1.25 mg/ml): 21 mm | Zone (Bacillus cereus; 2.5 mg/ml): 23 mm | Zone (Bacillus cereus; 5 mg/ml): 25 mm | Zone (Bacillus cereus; 10 mg/ml): 26 mm | Zone (Staphylococcus aureus; 0.31 mg/ml): 22.5 mm | Zone (Staphylococcus aureus; 0.62 mg/ml): 24.5 mm | Zone (Staphylococcus aureus; 1.25 mg/ml): 26.5 mm | Zone (Staphylococcus aureus; 2.5 mg/ml): 28 mm | Zone (Staphylococcus aureus; 5 mg/ml): 28.5 mm | Zone (Staphylococcus aureus; 10 mg/ml): 29.5 mm | activity against S. aureus (Staphylococcus aureus; statement in words): active | Zone (Bacillus subtilis; 0.31 mg/ml): 26 mm | Zone (Bacillus subtilis; 0.62 mg/ml): 28 mm | Zone (Bacillus subtilis; 1.25 mg/ml): 30 mm | Zone (Bacillus subtilis; 2.5 mg/ml): 31.5 mm | Zone (Bacillus subtilis; 5 mg/ml): 33 mm | Zone (Bacillus subtilis; 10 mg/ml): 34 mm | activity against B. subtilis (Bacillus subtilis; statement in words): active | Zone (Streptococcus pyogenes; 0.31 mg/ml): 34 mm | Zone (Streptococcus pyogenes; 0.62 mg/ml): 36.5 mm | Zone (Streptococcus pyogenes; 1.25 mg/ml): 38.5 mm | Zone (Streptococcus pyogenes; 2.5 mg/ml): 40 mm | Zone (Streptococcus pyogenes; 5 mg/ml): 40 mm | Zone (Streptococcus pyogenes; 10 mg/ml): 41.5 mm

acanthomycin ammonium salt
solubility in lower alcohols (Solubilities; salts (ammonium and sodium)): soluble | solubility in water (Solubilities; salts (ammonium and sodium)): soluble
